Marks after values point to notes of the source that are not given here.
Assays:
HIV-1RF = assay: Free virus binding assay (transfer of class II MHC to Jurkat cells); format: cell-based
Description: Virus binding was measured through host cell antigen transfer as described (Liao et al., supra, 2000). Briefly, Jurkat cells (1×10^6) were washed with serum free RPMI-1640 medium (iRPMI) before incubation in 20 mM 2-OH-βCD in iRPMI or iRPMI alone for 1 hr at 37° C. Cells were then washed twice with iRPMI before adding 100 Tl of clarified HIV-1 supernatant (>10 ng/ml of p24 from PM1 cells) for 1 hr on ice. Excess virus was removed by washing twice with iRPMI. MAbs were then added at 20 ug/ml in 5% NGS/PBS and allowed to incubate for 1 h on ice before washing with iRPMI. FITC-GAM (10 ug/ml) was then added for 45 min on ice before washing with iRPMI. Cells were then fixed with 2% paraformaldehyde followed by analysis on an EPICS Profile II flow cytometer.
The possibility that βCD treatment affected virus binding or interactions between gp120 and CD4 or CRs was examined. In order to measure virus binding to cells, a flow cytometry assay was used that measures the transfer of host cell class II MHC proteins to class II MHC-negative cells by HIV virions, which incorporate large numbers of these proteins into their lipid envelopes. […] Class II MHC-negative Jurkat cells were used as target cells in the HIV binding assay. As a positive control for flow cytometry analysis, class I MHC molecules were probed on the Jurkat cells, which were stained equally well with MAb against this protein before and after 2-OH-βCD treatment (Table 3). When HIV-1RF from class II MHC-positive PM1 cells was added to untreated Jurkat cells, class II MHC MAb mean channel fluorescence increased from 1.0 to 7.8 relative fluorescence units, while the percentage of positive cells increased from 3.0% to 55.4% (Table 3). 2-OH-βCD treatment of the cells reduced virus binding by 70%, as determined by mean channel fluorescence of the anti-class II MHC mAb.
HIV binding to Jurkat cells (control and 2-OH-βCD-treated) was measured by transfer of class II MHC molecules. MAbs used were MHM.5 (anti-class I MHC), positive control; MHM.33 (anti-class II MHC). “MCF” indicates mean channel fluorescence. “% Pos” indicates percent positive cells. “ND” indicates not determined.

[1] = tested on: HIV-1 primary strain 97.534, dual-tropic (X4R5); assay: Primary virus infection assay, isolate 97.534; format: cell-based; conditions: PHA blasts treated with 10 mM; p24 after 6 days
Description: Peripheral blood mononuclear cells (PBMCS) were isolated by Ficoll-Hypaque centrifugation from buffy coats obtained from the Johns Hopkins Hemapheresis Center. Cells were stimulated for 3 days with 3 Tg/ml PHA, washed with iRPMI, and treated with 10 mM 2-OH-βCD in cRPMI for 1 hr. Cells were then washed twice with iRPMI and resuspended in cRPMI (1×10^6/ml) supplemented with 50 U/ml IL-2 and containing primary HIV-1 strains at 20 ng/ml p24. Cells were incubated with virus for 24 hr at 37° C. before washing twice with iRPMI. Cells were then resuspended in cRPMI supplemented with 50 U/ml IL-2 and cultured for 6 days at 37° C. Supernatants were collected and p24 was quantitated by standard p24 ELISA.
βCD treatment blocks HIV-1 virus infection. HIV-1 can spread in cell cultures without necessarily exerting cytopathic effects. […] To test the effects of cholesterol depletion on HIV-1 infection of primary T cells by free virus, PHA blasts were treated with 10 mM 2-OH-βCD or medium alone, then were exposed to HIV-1 for 2 hr before washing to remove input virus. Viability and growth of the PHA blasts was not affected by treatment with the βCD under the conditions used. P24 release was measured after an addition 6 days in culture. Two primary strains of HIV-1, 97.099 and 97.534, M-tropic (R5) and dual-tropic (X4R5), respectively, were tested.

HIV-1Ba-L-infected HuPBL = assay: Vaginal transmission of cell-associated HIV-1 in HuPBL-SCID mice; format: in vivo; conditions: for Number of mice from which HIV-1 was cultured/Number of mice exposed to HIV-1: P < 0.01
Description: The mice were treated subcutaneously with 2.5 mg progestin (Depo-Provera® progestin; Upjohn Pharmaceuticals; Kalamazoo Mich.), on the same day as administration of 5×10^7 unstimulated HuPBMC intraperitoneally in 1 ml PBS. Seven days following progestin treatment and reconstitution of the SCID mice with HuPBMC, the mice were anesthetized and administered pelleted, cell-free HIV-1Ba-L (up to […]), supernatant fluids from HIV-1Ba-L-infected HuPBL, HIV-1Ba-L-infected HuPBL, or HIV-1MN-infected HuPBL (1×10^6/mouse). In the βCD experiments, the mice received 2-OH-βCD (3% w/v in PBS) 5 min prior to receiving 1×10^6 HIV-1Ba-L-infected HuPBL, 1×10^6 HIV-1Ba-L-infected HuPBL pre-incubated with 3% 2-OH-βCD, or 1×10^6 HIV-1Ba-L-infected HuPBL suspended in PBS.
Mice remained anesthetized for 5 minutes following intravaginal inoculation by pipette. Extreme care was taken to avoid causing trauma to vaginal tissues. Two weeks later the mice were euthanized and peritoneal cells were recovered by lavage with cold PBS. The cells recovered by lavage (of both murine and human origin) were assayed by DNA-PCR for human β-globin to determine the presence of human cells from the peritoneum and for HIV-1 infection by co-culture with PHA-stimulated HuPBMC.
The ability of a βCD to inhibit vaginal transmission of cell-associated HIV-1 was examined. Reconstituted HuPBL-SCID mice were challenged intravaginally with 1×10^6 PBMC infected with HIVBa-L after receiving progesterone subcutaneously and HuPBMC intraperitoneally. For two of the experimental groups the HIV-1 infected PBMC were pre-incubated in either 20 Tl PBS or 2-OH-βCD (3% w/v) before the mixture was inoculated intravaginally.

For “2-hydroxypropyl-β-cyclodextrin [2-OH-βCD]”, the “Reduction of virus binding, by mean channel fluorescence of the anti-class II MHC mAb” value (HIV-1RF; Jurkat cells treated with 20 mM) was 70%, the “MHM5 (anti-class I MHC) % Pos” value (HIV-1RF; treated Jurkat cells, HIVRF) was 100% and the “MHM5 (anti-class I MHC) MCF” value (HIV-1RF; treated Jurkat cells, HIVRF) was 167.8 MCF. For the same substance, the “MHM33 (anti-class II MHC) % Pos” value (HIV-1RF; treated Jurkat cells, HIVRF) was 26.0%, the “MHM33 (anti-class II MHC) MCF” value (HIV-1RF; treated Jurkat cells, HIVRF) was 2.4 MCF and the “IgG1 % Pos” value (HIV-1RF; treated Jurkat cells, no virus) was 3.4%. For the same substance, the “IgG1 MCF” value (HIV-1RF; treated Jurkat cells, no virus) was 0.7 MCF, the “MHM5 (anti-class I MHC) % Pos” value (HIV-1RF; treated Jurkat cells, no virus) was 100% and the “MHM5 (anti-class I MHC) MCF” value (HIV-1RF; treated Jurkat cells, no virus) was 165 MCF. The “MHM33 (anti-class II MHC) % Pos” value (HIV-1RF; treated Jurkat cells, no virus) was 3.3%, the “MHM33 (anti-class II MHC) MCF” value (HIV-1RF; treated Jurkat cells, no virus) was 0.7 MCF and the “Inhibition of infection of PHA blasts by isolate 97.534 (p24 release)” value [1] was “more than 70%”. The “Number of mice from which HIV-1 was cultured/Number of mice exposed to HIV-1” value (HIV-1Ba-L-infected HuPBL; 3% w/v intravaginally 5 min prior to infected HuPBMC challenge) was 1/11*, the “Number of mice from which HIV-1 was cultured/Number of mice exposed to HIV-1” value (HIV-1Ba-L-infected HuPBL; 3% w/v premixed with HIV-infected HuPBMC, intravaginal) was 2/16* and the “Cell-associated HIV-1 transmission by the vaginal route” value (HIV-1Ba-L-infected HuPBL; 3% w/v, even when administered prior to infected PBMC) was “significantly inhibited”.

Reference: patent US7589080B2, “β-cyclodextrin compositions, and use to prevent transmission of sexually transmitted diseases” (priority 2000, dated 2009)
